Measurements: the OPERA property sets (Mansouri et al. 2018)

SMILES	logP
NS(=O)(=O)c1ccc(Cl)c(Cl)c1	1.44
CC1(C)NC(=Nc2ncc([N+](=O)[O-])s2)OC1(C)C	2.4
O=c1c2ccccc2nc2n1CCC2	1.07
C=C1C(=O)OC2C=C(C)C3(O)C=CC(C)(CC(OC(=O)C(=CC)COC(C)=O)C12)O3 (configuration not stated)	1.19
COc1ccc(C(=O)CC(C)CC(=O)O)cc1Cl (configuration not stated)	2.6
O=C(O)c1cc(-c2ccc(F)cc2F)ccc1O	4.44
Cc1ncc(NS(=O)(=O)c2ccc(N)cc2)c(C)n1	0.59
CCC(C)CC	3.6
CCCCn1c(=O)[nH]c(=O)c2[nH]cnc21	0.84
N#CSO	0.32
O=c1[nH]c2ccccc2cc1-c1ccccc1	2.99
CCNC(=O)NS(=O)(=O)c1ccc(C)cc1	1.14
COc1cc(OC)c(Cl)c(Cc2cnc(N)nc2N)c1Cl	2.55
Nc1ccn([C@H]2C=C[C@@H](CO)O2)c(=O)n1	-1.55
CC1OC(OC2C(O)CC(OC3C(O)CC(OC4CCC5(C)C(CCC6C5CC(O)C5(C)C(C7COC(=O)C7)CCC65O)C4)OC3C)OC2C)CC(O)C1O (configuration not stated)	1.36
O=[N+]([O-])O[C@@H]1CO[C@H]2[C@@H]1OC[C@@H]2O	-0.15
CC(C(N)=O)n1nnc2ccccc21 (configuration not stated)	0.35
COC(C)(OC)c1ccc(C(O)(Cn2ccnc2)c2ccc(-c3ccncc3)cc2)cc1 (configuration not stated)	3.45
CCN(CC)CCNC(=O)c1ccc(N)cc1OC	1.4
CCC(C(=O)OCc1ccccc1)C(CO)Cc1cncn1C (configuration not stated)	1.97
N[C@@H](Cc1ccc(O)c(O)c1)C(=O)O	-2.39
O=C(COc1ccc(OCCNCC(O)COc2ccccc2)cc1)N1CCCCC1 (configuration not stated)	2.6
COc1ccc(N2Cn3c(nc4ccccc4c3=O)C2C)cc1 (configuration not stated)	1.73
CCCOC(=O)CNC(=O)CCCCSc1ncnc2nc[nH]c12	1.37
Cc1cc(=O)oc2c1ccc1occc12	2.32
CC(C)c1ccc(S(N)(=O)=O)cc1	1.84

SMILES	logP
CCC1(CC)C(=O)NC(=O)N=C1OC(C)C	1.86
CCC(C(=O)OCc1ccccc1)C(COC(=O)c1ccccc1)Cc1cncn1C (configuration not stated)	4.37
C#CCC(O)(CC#C)c1cccnc1	1.29
CCC(C(=O)OCc1ccc(C)cc1)C(COC(=O)C(C)(C)C)Cc1cncn1C (configuration not stated)	4.55
c1ccc(-c2ccc(-c3ccccc3)cc2)cc1	6.03
CCN1CC(C(O)C(CC2CCCCC2)NC(=O)C(Cc2cnc[nH]2)NC(=O)C(Cc2ccc(OC)cc2)NC(=O)N2CC(OCOC)C(OCOC)C2)OC1=O (configuration not stated)	2.06
CCCCC(CCCC)C(=O)O	3.2
CNC(=O)COc1ccc(OCC(O)CNC(C)C)cc1 (configuration not stated)	0.56
COc1cc(Br)c(Cc2cnc(N)nc2N)cc1OC	1.64
CCCCCCc1ccc(CC(=O)O)cc1	4.25
CNCCCN1c2ccccc2Sc2ccc(Cl)cc21	4.94
C=C(C)C(=O)OCC(F)(F)F	1.56
O=[N+]([O-])c1cc(F)cc(F)c1	2.03
COCc1ccc(C#N)cc1	1.23
OCC1c2ccccc2-c2ccccc21	2.89
COc1ccc(COc2ccccc2C(N)=O)cc1	1.63
Cc1cc(Br)cc(C)c1N=C1NCCN1	2.8
COC1CC(OC2CCC3(C)C(CCC4C3CCC3(C)C(C5=CC(=O)OC5)C(O)CC43O)C2)OC(C)C1O (configuration not stated)	0.59
Cc1ccc(O)c(CO)c1	0.97
CN1CC=C(c2cccs2)CC1	2.51
COC(=O)C(C(=O)OC)=C1SCCS1	1.51
CC(=O)OCC1SC(n2ccnc2[N+](=O)[O-])C(OC(C)=O)C(OC(C)=O)C1OC(C)=O (configuration not stated)	0.63
COc1cc(C(=O)OC2N=C(c3ccccc3)c3cc(Cl)ccc3NC2=O)cc(OC)c1OC (configuration not stated)	3.75
CCc1cccc(C2C(=O)c3ccccc3C2=O)c1	3.92
CN1CCC(=C2c3ccccc3C=Cc3ccccc32)CC1	4.69
COc1cc(S(C)=O)ccc1-c1nc2ncccc2[nH]1 (configuration not stated)	1.18

SMILES	logP
COc1ccc(CCNCC(O)COc2ccc(-c3ncc(Cl)[nH]3)cc2)cc1OC (configuration not stated)	2.4
Cc1cc(Br)cc(C(=O)NC(C)C)c1O	4.19
C=C1CCC2C(C1)c1c(OCc3ccc(-c4ccccc4)cc3)cc(CCCCC)cc1OC2(C)C (configuration not stated)	11.3
N#CC(CCN1CCC(C(N)=O)(N2CCCCC2)CC1)(c1ccccc1)c1ccccc1	3.91
CCCCCCCCCC[N+](C)(C)C.[I-]	-0.16
CC(C)OC(=O)[C@@H](N)Cc1ccc(O)c(O)c1	0.57
CCCCCCCCc1ccccc1	6.3
C=C(C)C(=O)OCCOCCOCCOC(=O)C(=C)C	1.88
COC(=O)c1nc(NCC(O)CO)cnc1[N+](=O)[O-] (configuration not stated)	-0.1
OC(Cn1ccnc1)(c1ccc(Cl)cc1)c1ccc(-c2ccncc2)cc1 (configuration not stated)	3.27
CCOCCNCC(O)COc1ccc(-c2ncc(-c3cccs3)[nH]2)cc1 (configuration not stated)	2.25
O=C(c1ccc(Cl)cc1Cl)c1ccc2n1CCC2C(=O)O (configuration not stated)	3.56
CC(C)(C)c1ccc(C2C(=O)c3ccccc3C2=O)cc1	4.88
COC(=O)c1ccc(N)cc1	1.37
O=C(O)c1ccc(Cl)cc1Nc1cccc(Cl)c1	5
COC1CC2(C)C(O)CCC2C2CCc3cc(O)ccc3C12 (configuration not stated)	2.72
Cc1cccc(C)c1NC(=O)CCN	0.62
C#C[C@]1(O)CC[C@H]2[C@@H]3CCc4cc(O)ccc4[C@H]3[C@@H](OC)C[C@@]21C	3.01
CCOC(=O)c1cccc(O)c1	2.47
Cc1ccccc1OCC(O)CNCCOc1ccc(C(N)=O)cc1 (configuration not stated)	2.22
CCCCCCCc1ccncc1	5
CCCCCCCCCCCC(=O)O	4.6
CCCOc1cc(Cc2cnc(N)nc2N)ccc1OC	1.88
COCc1cnc(-c2ccc(OCC(O)CNCCc3ccc(OC)c(OC)c3)cc2)[nH]1 (configuration not stated)	1.71
Cn1nnnc1SCC1=C(C(=O)OCOC(=O)C(C)(C)C)N2C(=O)C(NC(=O)C(O)c3ccccc3)C2SC1 (configuration not stated)	0.85
C[C@@H]1CC2=CC(=O)CC[C@@H]2[C@H]2CC[C@@]3(C)[C@@H](CC[C@]3(C)O)[C@@H]21	3.19

SMILES	logP
O=C1C=CC(=O)C(c2ccccc2)=C1	1.95
Brc1cccc(N=C2NCCN2)c1Br	2.16
Cc1ccc2c(c1)C(c1ccccc1)=NCC(=O)N2	2.62
O=C(O)Cc1cccc2ccccc12	2.24
CCOC(=O)CC[C@H](NC(=O)c1ccc(N(C)Cc2cnc3nc(N)nc(N)c3n2)cc1)C(=O)OCC	0.98
CNC(=O)OC1OC(=O)C2C3C=CC(C3)C12 (configuration not stated)	0.63
COc1ncnc2c1ncn2C1OC(CO)C(OC(=O)Cc2ccccc2)C1OC(=O)Cc1ccccc1 (configuration not stated)	3.48
COc1cccc(/C=C/C(=O)O)c1	2.37
COc1cccc2c1C(=O)c1c(O)c3c(c(O)c1C2=O)C[C@@](O)(C(C)=O)C[C@@H]3O[C@H]1C[C@H](N)[C@H](O)[C@H](C)O1	1.83
CCC(C(=O)OCc1ccc(Cl)cc1)C(COC(=O)c1ccccc1)Cc1cncn1C (configuration not stated)	4.9
O=C(O)C=COc1ccccc1	2.27
O=C(CN1CCCCC1)Nc1ccc(Cl)c(Cl)c1	3.65
CC(N)CC1CCCCC1 (configuration not stated)	2.96
COC1CC2(C)C(O)C(F)CC2C2CCc3cc(O)ccc3C12 (configuration not stated)	2.35
COc1ccc(CC(C)N)cc1OC (configuration not stated)	1.2
O=C(Cn1ccnc1[N+](=O)[O-])N(CCO)CCO	-1.64
CC(C(=O)NCC(O)CO)n1ccnc1[N+](=O)[O-] (configuration not stated)	-1.64
O=C1CCC(c2ccccc2)CC1	2.3
CCC1OC(=O)C(C)C(OC2CC(C)(OC)C(O)C(C)O2)C(C)C(OC2OC(C)CC(N(C)C)C2O)C(C)(O)CC(C)C(=O)C(C)C(OC(C)=O)C1(C)O (configuration not stated)	2.85
CCN1CC(C(O)C(CC2CCCCC2)NC(=O)C(Cc2cnc[nH]2)NC(=O)C(CC(=O)N(C)CCOCOCCOC)Cc2ccccc2)OC1=O (configuration not stated)	2.21
O=C(O)CN1C(=O)C=CC1=O	-0.14
CCCCCc1cc(OCCCCN)c2c(c1)OC(C)(C)C1CC=C(C)CC21 (configuration not stated)	8.38
CCN1CC(C(O)C(CC2CCCCC2)NC(=O)C(Cc2cnc[nH]2)NC(=O)C(Cc2ccc(OC)cc2)NC(=O)N2CC(O)C(O)C2)OC1=O (configuration not stated)	1.22
Cc1cn([C@H]2C=C[C@@H](CO)O2)c(=O)[nH]c1=O	-0.72
CCCCOC(=O)COc1cc(Cl)c(Cl)cc1Cl	4.81
CC1c2nc3ccccc3c(=O)n2CN1Cc1ccccc1 (configuration not stated)	1.72

SMILES	logP
O=C(NC1CCCCC1)NS(=O)(=O)c1ccc(Cl)cc1	3.38
CSC(C)=NOC(=O)N(C)SN(C(=O)N(C)C)C1CC1	2
CCC1(c2ccccc2)C(=O)NC(=O)N=C1OC(C)C (configuration not stated)	2.22
CCOP(=O)(NC)ON=C(C#N)c1ccc(Cl)cc1 (configuration not stated)	2.5
CCCCCCC(C)(C)c1cc(O)c2c(c1)OC(C)(C)C1CCC(CO)=CC21 (configuration not stated)	7.83
O=NN1CC=CCC1	1.18
C[C@H]1O[C@@H](O[C@H]2[C@@H](O)C[C@H](O[C@H]3[C@@H](O)C[C@H](O[C@H]4CC[C@@]5(C)[C@H](CC[C@@H]6[C@@H]5CC[C@]5(C)[C@@H](C7=CC(=O)OC7)CC[C@]65O)C4)O[C@@H]3C)O[C@@H]2C)C[C@H](O)[C@@H]1O	1.85
Nc1nc2c(ncn2C2OC(CO)C(O)C2O)c(=O)[nH]1 (configuration not stated)	-1.9
Cc1cccc(C)c1NC(=O)CCCC(C)N (configuration not stated)	1.41
CCCCCCCCCCC(=O)O	4.42
O=C(O)c1ccc(O)c(Cl)c1	2.41
CCCCCCCCCCCCCCCC(=O)O	7.17
Nc1ncc(Cc2cccc(Cl)c2)c(N)n1	2.29
O=[N+]([O-])c1cn(CCN2CCOCC2)cn1	-0.38
OC(Cn1ccnc1)(c1ccc(-c2ccccn2)cc1)c1ccc(F)cc1F (configuration not stated)	3.65
Cc1ccc(F)cc1NC1=NCCN1	1.41
COC(=O)C1C(C=C2CCSC2=O)C1(C)C (configuration not stated)	2.33
C=CCC(NC(=O)C(Cc1ccc(OC)cc1)NS(=O)(=O)N1CCOCC1)C(=O)NC(CC1CCCCC1)C(=O)C(F)(F)C(=O)NCCN1CCOCC1 (configuration not stated)	2.73
CCCc1ccc(N)cc1	2.4
COc1ccc(C(O)(Cn2ccnc2)c2ccc(Br)cc2)cc1 (configuration not stated)	4.02
CC1OC(OC2C(O)CC(OC3CCC4(C)C(CCC5C4CCC4(C)C(C6=CC(=O)OC6)CCC54O)C3)OC2C)CC(O)C1O (configuration not stated)	2.15
Cc1cccc(C(=O)c2ccc3n2CCC3C(=O)O)c1 (configuration not stated)	3.23
Cn1c([N+](=O)[O-])cnc1C=Cc1ccncn1	0.85
